Reference: patent US9655849B2, “Solid particulate compositions comprising coenzyme Q10” (Particle Dynamics International, LLC, priority 2011, dated 2017)
Where “and” joins values, the source holds several entries; their conditions need not be identical. Equal entries are not always repeated.

Experiment: CoQ10 Starting Material Particle Size Analysis, laser diffraction, dry dispersion
Type: physicochemical
Method: This example details the results of particle size analysis for a commercially available CoQ10 starting material. Dry samples of KANEKA Q10 powder were analyzed using laser diffraction to obtain a measurement of particle size characteristics.
Particle size analysis of the CoQ10 starting material was conducted using a dry dispersion method. A […] HELOS equipped with a RODOS dispersion module and a R3 lens was employed for the analysis. Prior to the analysis the sample was evaluated using optical microscopy. Particles were well dispersed and ranged in size from approximately 5 microns to approximately 90 microns.

[1] = dry powder, Avg. of analyses A-F
[2] = dry powder, single analyses A-F

- x10, Particulate Size Distribution (Number Basis) [1]: 0.55 μm
- x10, Particulate Size Distribution (Volume Basis) [1]: 4.76 μm
- x50, Particulate Size Distribution (Number Basis) [1]: 0.77 μm
- x50, Particulate Size Distribution (Volume Basis) [1]: 15.16 μm
- x90, Particulate Size Distribution (Number Basis) [1]: 1.30 μm
- x90, Particulate Size Distribution (Volume Basis) [1]: 40.52 μm
- x95, Particulate Size Distribution (Number Basis) [1]: 1.78 μm
- x95, Particulate Size Distribution (Volume Basis) [1]: 50.83 μm
- x99, Particulate Size Distribution (Number Basis) [1]: 5.11 μm
- x99, Particulate Size Distribution (Volume Basis) [1]: 71.32 μm
- x10, Particulate Size Distribution (Number Basis) [2]: 0.55 μm
- portion of the total volume attributable to particulates greater than 15 μm in diameter (volume basis): more than 50%
Compound: COC1=C(OC)C(=O)C(C/C=C(\C)CC/C=C(\C)CC/C=C(\C)CC/C=C(\C)CC/C=C(\C)CC/C=C(\C)CC/C=C(\C)CC/C=C(\C)CC/C=C(\C)CCC=C(C)C)=C(C)C1=O [KANEKA Q10]
- x10, Particulate Size Distribution (Volume Basis) [2]: 4.99 μm and 5.21 μm and 4.63 μm and 4.16 μm and 4.77 μm and 4.80 μm
- x50, Particulate Size Distribution (Volume Basis) [2]: 15.36 μm and 15.89 μm and 15.04 μm and 14.37 μm and 15.15 μm
- x90, Particulate Size Distribution (Volume Basis) [2]: 40.65 μm and 41.41 μm and 40.36 μm and 39.46 μm and 40.75 μm and 40.46 μm
- x95, Particulate Size Distribution (Number Basis) [2]: 1.79 μm and 1.74 μm and 1.77 μm and 1.80 μm and 1.78 μm
- x95, Particulate Size Distribution (Volume Basis) [2]: 50.84 μm and 51.76 μm and 50.62 μm and 49.96 μm and 51.11 μm and 50.68 μm
- x99, Particulate Size Distribution (Number Basis) [2]: 5.30 μm and 5.13 μm and 4.98 μm and 4.93 μm and 5.14 μm and 5.20 μm
- x99, Particulate Size Distribution (Volume Basis) [2]: 71.36 μm and 71.75 μm and 71.16 μm and 70.79 μm and 71.66 μm and 71.20 μm
